Patent US20030181390A1, “Amino acid conjugates providing for sustained systemic concentrations of GABA analogues” (priority 2002, published 2003)
Like-named read-outs stand apart in the source and are kept apart here.

Experiments:
[1] = rat; for fraction of prodrug absorbed intact following oral administration: oral and i.v. dosing of prodrug
[2] = monkey; for AUC for gabapentin (AUC G) / Cmax for gabapentin (Cmax G) / increase in gabapentin exposure (as measured by AUC) for a 7.5-fold increase in dose: oral; for increase in gabapentin exposure (as measured by AUC) for a 7.5-fold increase in dose: 10 to 75 mg-eq/kg
Method: (§6) The prodrug was administered orally to four adult male monkeys (approximate body weight of 6.5 kg) via an oral nasogastric tubeas solutions in water or PEG 400. The dose was 10 or 75 mg-equivalents of gabapentin per kg body weight. Animals were fasted overnight before the study and for 4 hours post-dosing. Blood samples (1.0 mL) were obtained via femoral or cephalic venipuncture at intervals over 48 hours after oral dosing. Blood was processed immediately for plasma and plasma was frozen at −80° C. until analyzed. […] Oral bioavailability was determined by comparison of area under the gabapentin concentration versus time curve (AUC) following oral administration of prodrug or intravenous administration of an equimolar dose of gabapentin hydrochloride.

[3] = Caco-2 homogenate S9 stability / release of gabapentin; type: in vitro ADME; settings: incubation with Caco-2 homogenate for 1 hour
Method: The stability of aminoacyl-gabapentin conjugates was evaluated by incubating the conjugates in the various tissue and enzyme-containing preparations listed in Table 1 below.
Tissue homogenates and plasma samples were obtained from commercial sources (Pel-Freez Biologicals, Rogers, Ariz., and GenTest Corporation, Woburn, Mass.). Stability of prodrugs toward the specific enzyme aminopeptidase was also evaluated by incubation with the purified enzyme. Experimental conditions used for the in vitro studies were as follows. Each preparation was incubated with test compound at 37° C. for one hour. Aliquots (50 μL) were removed at 0, 30, and 60 min and quenched with 0.1% trifluoroacetic acid in acetonitrile. Samples were then centrifuged and analyzed for the presence of prodrug and released gabapentin by LC/MS/MS as described below.
Concentrations of prodrug or gabapentin in tissue extracts were determined by direct injection onto an API 2000 LC/MS/MS equipped with an Agilent 1100 binary pump and autosampler. Separation was achieved using a 3.5 μm Zorbax Ellipse XDB-C8 4.4×150 mm column heated to 45° C. during the analysis. The mobile phases were: 0.1% formic acid in water (A) and 0.1% formic acid in acetonitrile (B). The gradient condition was: 2% B for 0.5 min, increasing to 90% B in 2.0 min, maintained for 2.5 min and returning to 2% B for 2 min. A TurboIonSpray source was used on the API 2000. The analysis was performed in the positive ion mode and MRM transitions of 172.0/137.2 were used in the analysis of gabapentin (2). Ten microliters of the sample extracts were injected. Peaks were integrated using Analyst quantitation software. The method was linear for (2) over the concentration range 0.002 to 2.5 μg/mL respectively.
The stability of gabapentin-containing prodrugs to Caco-2 homogenates was evaluated as follows:
Caco-2 Homogenate S9 Stability: Caco-2 cells were grown for 21 days prior to harvesting. Culture medium was removed and cell monolayers were rinsed and scraped off into ice-cold 10 mM sodium phosphate/0.15 M potassium chloride, pH 7.4. Cells were lysed by sonication at 4° C. using a probe sonicator. Lysed cells were then transferred into 1.5 mL centrifuge vials and centrifuged at 9000 g for 20 min at 4° C. The resulting supernatant (Caco-2 cell homogenate S9 fraction) was aliquoted into 0.5 mL vials and stored at −80° C. until used.
For stability studies, prodrug (5 μM) was incubated in Caco-2 homogenate S9 fraction (0.5 mg protein per mL) for 60 min at 37° C. Concentrations of intact prodrug and released drug were determined at zero time and 60 minutes using LC/MS/MS.

in vivo [4] = settings: rat; for Cmax for prodrug (Cmax PD) in plasma: single oral dose of prodrug, 25 mg-equivalents of gabapentin per kg
Method: The pharmacokinetics of the prodrugs prepared in Examples 1 and 3 were examined in rats. […] Animals were fasted overnight prior to dosing and until 4 hours post-dosing. Serial blood samples were obtained over 24 hours following dosing and blood was processed for plasma by centrifugation. Plasma samples were stored at −80° C. until analyzed.
Plasma (50 μL) was precipitated by addition of […] of methanol and supernatant was injected directly onto the LC/MS/MS system. […] Following oral administration of gabapentin prodrugs, concentrations of prodrug and gabapentin in plasma were monitored over 24 hours.

[5] = man, cited from earlier work
in vivo [6] = settings: male, monkey, plasma, po
Method: as §6

[7] = monkey, sodium salt in water, 10 mg-equivalents of gabapentin per kg
[8] = rat, intracolonic, sodium salt, dose equivalent to 25 mg of gabapentin per kg
Method: Rats were obtained commercially and were pre-cannulated in the both the ascending colon and the jugular vein. Animals were conscious at the time of the experiment. All animals were fasted overnight and until 4 hours post-dosing. […] Blood samples (0.5 mL) were obtained from the jugular cannula at intervals over 8 hours and were quenched immediately by addition of acetonitrile/methanol to prevent further conversion of the prodrug.

PEPT2 = settings: tested at 1 mM on oocytes expressing PEPT2; normalised to 1 mM glycyl-sarcosine
Method: (§1) Rat and human PEPT1 and PEPT2 expressing CHO cell lines were prepared as described in PCT Application WO01/20331. Gabapentin-containing dipeptides were evaluated for interaction with the peptide transporters using a radiolabeled substrate uptake assay in a competitive inhibition format, as described in PCT Application WO01/20331. Transport-induced currents were also measured in Xenopus oocytes transfected with rat and human PEPT1 and PEPT2.
(§2) (b) Analysis of Electrogenic Transport in Xenopus oocytes
(§3) RNA preparation: Rat and human PEPT1 and PEPT2 transporter cDNAs were subcloned into a modified pGEM plasmid that contains 5′ and 3′ untranslated sequences from the Xenopus β-actin gene. These sequences increase RNA stability and protein expression. Plasmid cDNA was linearized and used as template for in vitro transcription (Epicentre Technologies transcription kit, 4:1 methylated:non-methylated GTP).
(§4) Xenopus oocyte isolation. Xenopus laevis frogs were anesthetized by immersion in Tricaine ([…] in deionized water) for 15 min. […]
(§5) Electrophysiology measurements. Transport currents were measured 2-14 days after injection, using a standard two-electrode electrophysiology set-up (Geneclamp 500 amplifier, Digidata 1320/PCLAMP software and ADInstruments hardware and software were used for signal acquisition).

PEPT1 = settings: tested at 1 mM on oocytes expressing PEPT1; normalised to 1 mM glycyl-sarcosine
Method: as §1, §2, §3, §4, §5

[9] = male, Sprague-Dawley, plasma, po, 25 mg/kg

## N[C@@H](CO)C(=O)NCC1(CC(=O)O)CCCCC1 [1ax, L-Serine-Gabapentin]
[1]
  fraction of prodrug absorbed intact following oral administration: 15-20%
[2]; 10 mg-eq/kg
  oral bioavailability as gabapentin (F): 41.5±12.2%
  AUC for gabapentin (AUC G): 24700 ± 7300 ng·h/mL
  Cmax for gabapentin (Cmax G): 3700 ± 1100 ng/mL
[2]; 75 mg-eq/kg
  oral bioavailability as gabapentin (F): 28.1±1.1%
  AUC for gabapentin (AUC G): 125000 ± 5000 ng·h/mL
  Cmax for gabapentin (Cmax G): 14500 ± 1600 ng/mL
[2]
  increase in gabapentin exposure (as measured by AUC) for a 7.5-fold increase in dose: 5.1 fold

## N[C@@H](Cc1cccc2ccccc12)C(=O)NCC1(CC(=O)O)CCCCC1 [1l, L-1-Naphthylalanine-Gabapentin]
[3]
  % of prodrug surviving intact: 29%
In vivo [4]
  Cmax for prodrug (Cmax PD) in plasma: 500 ng/mL

## NCC1(CC(=O)O)CCCCC1 [gabapentin]
[5]; dose of 300 mg
  oral bioavailability: about 60%
[5]; dose of 1600 mg
  oral bioavailability: about 35%
[2]
  increase in gabapentin exposure (as measured by AUC) for a 7.5-fold increase in dose: 3.2 fold
In vivo [6]; 10 mg/kg
  AUC: 32100 ± 10400 ng·h/mL
  Cmax: 3700 ± 1600 ng/mL
  bioavailability: 53.9 ± 17.3%
In vivo [6]; 75 mg/kg
  AUC: 102000 ± 4900 ng·h/mL
  Cmax: 10800 ± 1300 ng/mL
  bioavailability: 22.9 ± 1.1%
In vivo [4]; [9]
  Cmax: 10300 ng/mL
  half-life: 2.4 ± 0.5 h

## NC(Cc1ccc(F)cc1F)C(=O)NCC1(CC(=O)O)CCCCC1 [1ap, D, L-2,4-Difluorophenylalanine-Gabapentin]
[3]
  % of prodrug surviving intact: 90%
In vivo [4]
  Cmax for prodrug (Cmax PD) in plasma: 278000 ng/mL

## N#Cc1ccc(C[C@H](N)C(=O)NCC2(CC(=O)O)CCCCC2)cc1 [1am, L-4-Cyanophenylalanine-Gabapentin]
[3]
  % of prodrug surviving intact: 90%
In vivo [4]
  Cmax for prodrug (Cmax PD) in plasma: 22400 ng/mL

## N[C@@H](Cc1ccc(Br)cc1)C(=O)NCC1(CC(=O)O)CCCCC1 [1ah, L-4-Bromophenylalanine-Gabapentin]
[1]
  fraction of prodrug absorbed intact following oral administration: about 60%
[1]; oral dosing of prodrug
  oral bioavailability of gabapentin provided by prodrug: about 53%
[7]; oral
  AUC for gabapentin (AUC G): 29100 ± 3500 ng·h/mL
  AUC for prodrug (AUC PD): 18900 ± 6500 ng·h/mL
  Cmax for gabapentin (Cmax G): 3800 ± 1100 ng/mL
  CmaxPH (Cmax for prodrug): 14900 ± 5300 ng/mL
[7]
  oral bioavailability as gabapentin (F): 49.1±6.8%
[3]
  % of prodrug surviving intact: 79%
In vivo [4]; oral 25 mg/kg (or 25 mg-equivalents of gabapentin per kg) vs intravenous gabapentin
  oral bioavailability (F) as gabapentin: 53%
In vivo [4]; single oral dose 25 mg/kg (or 25 mg-equivalents of gabapentin per kg)
  maximum plasma concentration (Cmax) of gabapentin: 6100 ng/mL
In vivo [4]
  Cmax for prodrug (Cmax PD) in plasma: 103000 ng/mL
[8]
  area under the gabapentin plasma concentration vs. time curve relative to colonic administration of gabapentin itself: > 3 fold
  maximum plasma concentration of gabapentin relative to colonic administration of gabapentin itself: > 3 fold

## CC(C)C[C@H](CNC(=O)[C@@H](N)Cc1ccc(Br)cc1)CC(=O)O [compound 5, L-4-Bromophenylalanine-Pregabalin]
PEPT2
  PEPT-specific current, % of Imax for Gly-Sar: at least 5 % of Imax for Gly-Sar
PEPT1
  PEPT-specific current, % of Imax for Gly-Sar: at least 5 % of Imax for Gly-Sar

## N[C@@H](Cc1cc(F)cc(F)c1)C(=O)NCC1(CC(=O)O)CCCCC1 [1ao, L-3,5-Difluorophenylalanine-Gabapentin]
[3]
  % of prodrug surviving intact: 48%
In vivo [4]
  Cmax for prodrug (Cmax PD) in plasma: 2900 ng/mL

## N#Cc1cccc(C[C@H](N)C(=O)NCC2(CC(=O)O)CCCCC2)c1 [1al, L-3-Cyanophenylalanine-Gabapentin]
[3]
  % of prodrug surviving intact: 46%
In vivo [4]
  Cmax for prodrug (Cmax PD) in plasma: 600 ng/mL

## L-Tyrosine-(O-2-Bromobenzyloxycarbonyl)-Gabapentin [4d]
[3]
  % of prodrug surviving intact: 3%

## N[C@@H](Cc1ccc(C(F)(F)F)cc1)C(=O)NCC1(CC(=O)O)CCCCC1 [1aa, L-4-Trifluoromethylphenylalanine-Gabapentin]
[3]
  % of prodrug surviving intact: 97%
In vivo [4]
  Cmax for prodrug (Cmax PD) in plasma: 30000 ng/mL
